Test results taken from publication PMC6018746, “Activation of the p53-MDM4 regulatory axis defines the anti-tumour response to PRMT5 inhibition through its role in regulating cellular splicing” (Scientific Reports, 2018).
Like-named read-outs stand apart in the source and are kept apart here.

Test system: panel of hematologic and solid cancer lines
Assay: 6-day in vitro growth/death assay
Assay type: cell-based, human
Conditions: read-out: gIC50
Procedure: To further develop these molecules and to guide clinical strategy, it was necessary to understand sensitivity in preclinical models by assessing the anti-tumour activity of the PRMT5 inhibitors in various cancers.
Cell lines were obtained from ATCC or DSMZ and were grown in recommended medium, which was most frequently RPMI-1640 containing 10% FBS. Cell line proliferation assays, Western blotting, qRT-PCR, and cell cycle analyses were performed as described previously[27],[28]. Antibody and gene expression reagents are as described in Supplementary Table 16. All studies were conducted in accordance with the GSK Policy on the Care, Welfare and Treatment of Laboratory Animals and were reviewed by the Institutional Animal Care and Use Committee either at GSK or by the ethical review process at the institution where the work was performed. Detailed descriptions of all methods can be found in the Supplemental Materials.

In the case of `O=C(NC[C@H](O)CN1CCc2ccccc2C1)c1ccnc(NC2CCC2)c1` [GSK3203591], the IC50 5637 is reported as 0.143 µM, the IC50 (A172) is reported as 0.59 µM and the IC50 (BJAB) is reported as 3.1 µM. For the same compound, the IC50 (DOHH-2) was 0.116 µM, the IC50 (HCC70) was 0.522 µM and the IC50 (HCC1143) was 0.509 µM. The IC50 (HCC1806) was 0.261 µM, the IC50 (Homo sapiens, 1A2, 1A2) was 0.333 µM and the IC50 (Homo sapiens, 22Rv1, 22Rv1) was 23.5 µM. It also gave an IC50 (Homo sapiens, 639-V) of 0.731 µM, an IC50 (Homo sapiens, 647-V) of 0.426 µM and an IC50 (Homo sapiens, 769-P) of over 29.3 µM. It also gave an IC50 (Homo sapiens, 5637) of 0.143 µM, an IC50 (Homo sapiens, A 172, A172) of 0.59 µM and an IC50 (Homo sapiens, A204, A204) of over 29 µM. It also gave an IC50 (Homo sapiens, A498, A498) of 0.435 µM, an IC50 (Homo sapiens, A549, A549) of 0.837 µM and an IC50 (Homo sapiens, A-375, A-375) of 0.647 µM. For the same compound, the IC50 (Homo sapiens, A-427, A427) was 0.276 µM, the IC50 (Homo sapiens, AML-193) was 1.4 µM and the IC50 (Homo sapiens, AMO1, AMO-1) was 0.337 µM. For the same compound, the IC50 (Homo sapiens, ARH-77, ARH-77) was 0.238 µM, the IC50 (Homo sapiens, ASPC1, ASPC1) was 0.424 µM and the IC50 (Homo sapiens, BC-3C) was 0.408 µM. The IC50 (Homo sapiens, BFTC-905, BFTC-905) was 0.44 µM, the IC50 (Homo sapiens, BJAB) was 3.1 µM and the IC50 (Homo sapiens, BT-20, BT-20) was 8.16 µM. It also gave an IC50 (Homo sapiens, BT-474, BT-474) of 5.74 µM, an IC50 (Homo sapiens, BT-549, BT549) of 17.8 µM and an IC50 (Homo sapiens, CA46, CA-46) of 0.58 µM. The IC50 (Homo sapiens, CAKI-1, Caki-1) was 0.578 µM, the IC50 (Homo sapiens, CAL-29) was 0.817 µM and the IC50 (Homo sapiens, CAL-51, CAL-51) was 2.3 µM. It also gave an IC50 (Homo sapiens, CAL-85-1, CAL-85-1) of 1.74 µM, an IC50 (Homo sapiens, CAMA-1, CAMA-1) of 7.33 µM and an IC50 (Homo sapiens, CAPAN-1, CAPAN1) of 1.11 µM. For the same compound, the IC50 (Homo sapiens, CHP-212, CHP-212) was 0.0163 µM, the IC50 (Homo sapiens, COLO 201, Colo 201) was 0.661 µM and the IC50 (Homo sapiens, COLO 205, Colo 205) was 0.694 µM. For the same compound, the IC50 (Homo sapiens, COLO 320DM, COLO-320DM) was 2.35 µM, the IC50 (Homo sapiens, COLO-320-HSR, Colo 320 HSR) was 2.22 µM and the IC50 (Homo sapiens, COLO-741, COLO-741) was 2.91 µM. For the same compound, the IC50 (Homo sapiens, COR-L23, COR-L23) was 0.786 µM, the IC50 (Homo sapiens, COR-L105, COR-L105) was over 29.3 µM and the IC50 (Homo sapiens, Caco-2, CaCo-2) was 0.74 µM. It also gave an IC50 (Homo sapiens, Calu-1, Calu1) of over 29.3 µM, an IC50 (Homo sapiens, Calu-6, Calu6) of 1.28 µM and an IC50 (Homo sapiens, Capan-2, CAPAN2) of 1.06 µM. The IC50 (Homo sapiens, ChaGo-K-1, Cha-Go-K1) was 2.82 µM, the IC50 (Homo sapiens, DB) was 0.347 µM and the IC50 (Homo sapiens, DBTRG-05MG, DBTRG05MG) was over 29.3 µM. It also gave an IC50 (Homo sapiens, DLD-1, DLD-1) of 2.43 µM, an IC50 (Homo sapiens, DMS-114, DMS114) of 9.17 µM and an IC50 (Homo sapiens, DMS-273, DMS273) of 0.262 µM. For the same compound, the IC50 (Homo sapiens, DOHH-2, DOHH-2) was 0.116 µM, the IC50 (Homo sapiens, DU-145, DU145) was 3.72 µM and the IC50 (Homo sapiens, DU-4475, DU-4475) was 1.01 µM. For the same compound, the IC50 (Homo sapiens, EBC-1, EBC-1) was 0.239 µM, the IC50 (Homo sapiens, EFM-19, EFM-19) was 0.162 µM and the IC50 (Homo sapiens, F-36P) was 1.88 µM. The IC50 (Homo sapiens, G-361, G-361) was 4.36 µM, the IC50 (Homo sapiens, G-401, G-401) was 0.189 µM and the IC50 (Homo sapiens, GDM-1, GDM-1) was 0.0423 µM. The IC50 (Homo sapiens, GF-D8) was 33.2 µM, the IC50 (Homo sapiens, HCC38, HCC38) was 0.127 µM and the IC50 (Homo sapiens, HCC70, HCC70) was 0.522 µM. The IC50 (Homo sapiens, HCC827, HCC827) was 21 µM, the IC50 (Homo sapiens, HCC1143, HCC1143) was 0.509 µM and the IC50 (Homo sapiens, HCC1395, HCC1395) was 14.7 µM. The IC50 (Homo sapiens, HCC1569, HCC1569) was 11.3 µM, the IC50 (Homo sapiens, HCC1806, HCC1806) was 0.261 µM and the IC50 (Homo sapiens, HCC1937, HCC1937) was 0.957 µM. It also gave an IC50 (Homo sapiens, HCC2935, HCC2935) of 21.6 µM, an IC50 (Homo sapiens, HCC4006, HCC4006) of 0.17 µM and an IC50 (Homo sapiens, HCT-15, HCT-15) of 1.25 µM. For the same compound, the IC50 (Homo sapiens, HCT-116, HCT-116) was 10 µM, the IC50 (Homo sapiens, HD-MY-Z) was 0.143 µM and the IC50 (Homo sapiens, HEL 92.1.7, HEL 92.1.7) was 12.4 µM. The IC50 (Homo sapiens, HL-60, HL60) was 4.27 µM, the IC50 (Homo sapiens, HOS) was over 29 µM and the IC50 (Homo sapiens, HPAC) was 0.901 µM. For the same compound, the IC50 (Homo sapiens, HPAF-II, HPAFII) was 0.957 µM, the IC50 (Homo sapiens, HT115, HT115) was 1.74 µM and the IC50 (Homo sapiens, HT-29, HT-29) was 1.81 µM. The IC50 (Homo sapiens, HT-144, HT-144) was 1.05 µM, the IC50 (Homo sapiens, HT-1376, HT-1376) was 13.1 µM and the IC50 (Homo sapiens, HT) was 0.272 µM. It also gave an IC50 (Homo sapiens, Hs 445, Hs445) of 0.976 µM, an IC50 (Homo sapiens, Hs766T) of 1.97 µM and an IC50 (Homo sapiens, Hs-578T, Hs578t) of 18.2 µM. For the same compound, the IC50 (Homo sapiens, HuNS1, Huns1) was 0.887 µM, the IC50 (Homo sapiens, HuP-T3, HuP-T3) was 3.39 µM and the IC50 (Homo sapiens, HuP-T4, HuP-T4) was 0.19 µM. The IC50 (Homo sapiens, HuT78, HuT78) was 0.103 µM, the IC50 (Homo sapiens, IGR-1, IGR-1) was 8.76 µM and the IC50 (Homo sapiens, IGROV-1, IGROV-1) was 0.189 µM. It also gave an IC50 (Homo sapiens, J82, J82) of 20.9 µM, an IC50 (Homo sapiens, JJN-3, JJN3) of 0.164 µM and an IC50 (Homo sapiens, JM1, JM1) of 0.0758 µM. It also gave an IC50 (Homo sapiens, JMSU-1, JMSU-1) of 0.583 µM, an IC50 (Homo sapiens, JVM-2, JVM-2) of 0.172 µM and an IC50 (Homo sapiens, JY) of 0.0951 µM. The IC50 (Homo sapiens, JeKo-1, JeKo-1) was 6.19 µM, the IC50 (Homo sapiens, K562, K562) was 0.31 µM and the IC50 (Homo sapiens, KMS-11, KMS-11) was 0.0468 µM. For the same compound, the IC50 (Homo sapiens, KMS-12-BM) was 0.191 µM, the IC50 (Homo sapiens, KO52) was 0.513 µM and the IC50 (Homo sapiens, KP-3) was 0.0999 µM. For the same compound, the IC50 (Homo sapiens, KP-4, KP-4) was 20.8 µM, the IC50 (Homo sapiens, KPL-1, KPL-1) was 4.11 µM and the IC50 (Homo sapiens, KS-1) was 0.0855 µM. It also gave an IC50 (Homo sapiens, KU-19-19, KU-19-19) of 1.11 µM, an IC50 (Homo sapiens, Kasumi 1, KASUMI-1) of 13.2 µM and an IC50 (Homo sapiens, L-363, L363) of 0.0657 µM. It also gave an IC50 (Homo sapiens, L-428, L-428) of 0.665 µM, an IC50 (Homo sapiens, LC-1sq) of 7.59 µM and an IC50 (Homo sapiens, LK-2, LK2) of 0.0899 µM. For the same compound, the IC50 (Homo sapiens, LN-18, LN-18) was 9.68 µM, the IC50 (Homo sapiens, LN-229, LN-229) was 1.15 µM and the IC50 (Homo sapiens, LNCaP) was 18.9 µM. It also gave an IC50 (Homo sapiens, LP-1, LP1) of 0.975 µM, an IC50 (Homo sapiens, LS-411N, Ls411N) of 0.442 µM and an IC50 (Homo sapiens, LoVo) of 0.494 µM. The IC50 (Homo sapiens, Lu-65, LU65) was 0.463 µM, the IC50 (Homo sapiens, Lu-99, LU-99) was 5.3 µM and the IC50 (Homo sapiens, M059J) was 18.9 µM. It also gave an IC50 (Homo sapiens, M059K) of 7.89 µM, an IC50 (Homo sapiens, MC116, MC116) of 0.082 µM and an IC50 (Homo sapiens, MC/CAR) of 2.74 µM. The IC50 (Homo sapiens, MCF7, MCF-7) was 0.215 µM, the IC50 (Homo sapiens, MDA-MB-157, MDA-MB-157) was 3.25 µM and the IC50 (Homo sapiens, MDA-MB-231, MDA-MB-231) was 2.93 µM. The IC50 (Homo sapiens, MDA-MB-435S) was 2.22 µM, the IC50 (Homo sapiens, MDA-MB-436, MDA-MB-436) was 7.13 µM and the IC50 (Homo sapiens, MDA-MB-453, MDA-MB-453) was 0.343 µM. The IC50 (Homo sapiens, MDA-MB-468, MDA-MB-468) was 0.585 µM, the IC50 (Homo sapiens, ME-1, ME1) was 2.45 µM and the IC50 (Homo sapiens, MEL-HO) was 1.55 µM. It also gave an IC50 (Homo sapiens, MEL-JUSO) of 0.0793 µM, an IC50 (Homo sapiens, MHH-PREB-1, MHH-PREB-1) of 3.3 µM and an IC50 (Homo sapiens, MIA PaCa-2, Miapaca-2) of 0.263 µM. The IC50 (Homo sapiens, MINO) was 0.536 µM, the IC50 (Homo sapiens, ML-2, ML-2) was 0.115 µM and the IC50 (Homo sapiens, MOLM16, MOLM-16) was 31 µM. It also gave an IC50 (Homo sapiens, MOLM-13, MOLM-13) of 0.0862 µM, an IC50 (Homo sapiens, MOLP-2, MOLP-2) of 22.1 µM and an IC50 (Homo sapiens, MONO-MAC-6, MonoMac6) of 0.196 µM. For the same compound, the IC50 (Homo sapiens, MV4-11, MV-4-11) was 0.0947 µM, the IC50 (Homo sapiens, Maver1, MAVER-1) was 0.133 µM and the IC50 (Homo sapiens, NALM-6, NALM-6) was 1.06 µM. The IC50 (Homo sapiens, NB-4, NB-4) was 0.0809 µM, the IC50 (Homo sapiens, NCI-H146, NCI-H146) was 0.411 µM and the IC50 (Homo sapiens, NCI-H292, NCI-H292) was 1.34 µM. It also gave an IC50 (Homo sapiens, NCI-H322, NCI-H322) of 1.7 µM, an IC50 (Homo sapiens, NCI-H441, NCI-H441) of 22.4 µM and an IC50 (Homo sapiens, NCI-H520, NCI-H520) of 0.0261 µM. For the same compound, the IC50 (Homo sapiens, NCI-H522, NCI-H522) was over 29.3 µM, the IC50 (Homo sapiens, NCI-H526, NCI-H526) was 0.138 µM and the IC50 (Homo sapiens, NCI-H526-R) was 0.219 µM. The IC50 (Homo sapiens, NCI-H647, NCI-H647) was 2.53 µM and the IC50 (Homo sapiens, NCI-H661, NCI-H661) was 30.8 µM.
